Experimental data reported in patent US20050250677A1, “Glycopeptide antibiotic derivatives” (priority 2002, published 2005).
Read-outs that look alike come from different tables or passages of the source.

Tests used:
HEL cells [1] = conditions: read-out: CC50 (HEL), HEL cells
HEL cells [2] = tested on: HEL cells
VZV (wild-type strains) = assay: Anti-VZV assay (wild-type strains): virus-induced cytopathicity in HEL cell cultures; format: cell-based, varicella-zoster virus
CMV = assay: Anti-CMV assay: virus-induced cytopathicity in HEL cell cultures
human lymphocyte CEM = assay: Cytostatic activity assay, CEM cells; format: cell-based; conditions: read-out: IC50 CEM (compound concentration required to inhibit tumor cell proliferation by 50%)
HIV-2(ROD) = assay: Inhibition of HIV-2 (ROD)-induced cytopathicity (giant cell formation) in CEM cells; format: cell-based; conditions: read-out: EC50 HIV-2 (concentration required to inhibit HIV-induced giant cell formation by 50%); HIV-2, CEM cell cultures
Protocol: (§1) A variety of glycopeptide antibiotic derivatives of vancomycin, eremomycin and teicoplanin including their aglycon derivatives were evaluated for their inhibitory activity against HIV-1 (IIIB) and HIV-2(ROD) in CEM cell cultures.

[3] = tested on: human lymphocyte Molt4/clone 8; assay: Cytostatic activity assay, Molt4/clone 8 cells; format: cell-based; conditions: read-out: IC50 Molt4/C8 (compound concentration required to inhibit tumor cell proliferation by 50%)
murine leukemia L1210 = assay: Cytostatic activity assay, L1210 cells; format: cell-based; conditions: read-out: IC50 L1210 (compound concentration required to inhibit tumor cell proliferation by 50%)
HIV-1 (IIIB) = assay: Inhibition of HIV-1 (IIIB)-induced cytopathicity (giant cell formation) in CEM cells; format: cell-based; conditions: read-out: EC50 HIV-1 (concentration required to inhibit HIV-induced giant cell formation by 50%); HIV-1, CEM cell cultures
Protocol: as §1

FCV = assay: Feline corona virus assay in Feline Crandel kidney cells (MTS); format: cell-based; conditions: for EC50: FCV in FCK cells, read-out: EC50 FCV
Protocol: Feline Crandel kidney cells were seeded in 96-well microtiter plates at 24,000 cells/well. Then, 24 hrs later, an appropriate inoculum of FCV is added together with 5-fold dilutions of the test compounds. After 4 days, a MTS/PMS solution was added to each well. Following a 90 min incubation period at 37° C., the optical density of the wells was read at 498 nm in a microplate reader.

FCK cells = conditions: read-out: CC50 FCK; FCK cells
[4] = VZV strain OKA, HEL cell cultures, read-out: EC50 VZV (OKA)
[5] = VZV strain YS, HEL cell cultures, read-out: EC50 VZV (YS)
[6] = read-out: EC50 CMV AD-169, CMV strain AD-169, HEL cell cultures
[7] = read-out: EC50 CMV Davis, CMV strain Davis, HEL cell cultures

O=C1NC2C(=O)NC3C(=O)NC4C(=O)NC(C(=O)NC(C(=O)O)c5cc(O)cc(O)c5-c5cc4ccc5O)C(O)c4ccc(c(Cl)c4)Oc4cc3cc(c4O)Oc3ccc(cc3Cl)CC1NC(=O)C(NCc1ccc(-c3ccccc3)cc1)c1ccc(O)c(c1)Oc1cc(O)cc2c1 (stereo not shown) [Compound 122]
CC50 (HEL cells [1]; anti-CMV table): > 50 µM
CC50 (HEL cells [1]; anti-VZV table): > 50 µM
MTC (HEL) (HEL cells [2]; anti-CMV table): 20 to 50 µM
MTC (HEL) (HEL cells [2]; anti-VZV table): 20 to 50 µM
EC50 (VZV (wild-type strains); [4]): 1 µM
EC50 (VZV (wild-type strains); [5]): 1 µM
EC50 (CMV; [6]): > 20 µM

CCCCCCCCCC[N+](C)(C)CCCNC(=O)C1NC(=O)C2NC(=O)C(NC(=O)C3NC(=O)C4NC(=O)C(Cc5ccc(c(Cl)c5)Oc5cc3cc(c5O)Oc3ccc(cc3Cl)C2O)NC(=O)C(N)c2ccc(O)c(c2)Oc2cc(O)cc4c2)c2ccc(O)c(c2)-c2c(O)cc(O)cc21 (stereo not shown) [Compound 27]
CC50 (HEL cells [1]; anti-CMV table): > 200 µM
CC50 (HEL cells [1]; anti-VZV table): > 200 µM
MTC (HEL) (HEL cells [2]; anti-CMV table): ≧2-50 μM
MTC (HEL) (HEL cells [2]; anti-VZV table): ≧2-50 μM
IC50 (human lymphocyte CEM): 18 ± 3 µM
EC50 (HIV-2(ROD)): 2.3 ± 0.21 µM
EC50 (VZV (wild-type strains); [4]): 1 µM
EC50 (VZV (wild-type strains); [5]): 0.8 µM
IC50 [3]: 28 ± 0.4 µM
IC50 (murine leukemia L1210): 9.1 ± 0.9 µM
EC50 (HIV-1 (IIIB)): 1.5 ± 0.42 µM
anti-CMV activity (CMV): anti-CMV activity
EC50 (CMV; [6]): ≥ 5 µM
EC50 (CMV; [7]): 3.5 µM

NC1C(=O)NC2Cc3ccc(c(Cl)c3)Oc3cc4cc(c3O)Oc3ccc(cc3Cl)C(O)C3NC(=O)C(NC(=O)C4NC(=O)C(NC2=O)c2cc(O)cc(c2)Oc2cc1ccc2O)c1ccc(O)c(c1)-c1c(O)cc(O)cc1C(C(=O)N1CCN(Cc2ccc(C=Cc4ccccc4)cc2)CC1)NC3=O (stereo not shown) [Compound 127]
CC50 (HEL cells [1]; anti-CMV table): 44 µM
CC50 (HEL cells [1]; anti-VZV table): 44 µM
MTC (HEL) (HEL cells [2]; anti-CMV table): ≧5-20 μM
MTC (HEL) (HEL cells [2]; anti-VZV table): ≧5-20 μM
EC50 (VZV (wild-type strains); [4]): 0.7 µM
EC50 (VZV (wild-type strains); [5]): 0.3 µM
EC50 (CMV; [6]): 10 µM
EC50 (CMV; [7]): > 5 µM

CNC(CC(C)C)C(=O)NC1C(=O)NC(CC(N)=O)C(=O)NC2C(=O)NC3C(=O)NC(C(=O)NC(C(=O)O)c4cc(O)cc(O)c4-c4cc3ccc4O)C(O)c3ccc(c(Cl)c3)Oc3cc2cc(c3OC2OC(CO)C(O)C(O)C2OC2CC(C)(NCc3ccc(-c4ccc(Cl)cc4)cc3)C(O)C(C)O2)Oc2ccc(cc2Cl)C1O (stereo not shown) [Compound 59]
CC50 (HEL cells [1]; anti-CMV table): > 50 µM
CC50 (HEL cells [1]; anti-VZV table): > 50 µM
MTC (HEL) (HEL cells [2]; anti-CMV table): 5 to 20 µM
MTC (HEL) (HEL cells [2]; anti-VZV table): 5 to 20 µM
EC50 (VZV (wild-type strains); [4]): 0.87 µM
EC50 (VZV (wild-type strains); [5]): 0.89 µM
EC50 (VZV (wild-type strains); read-out: EC50 against VZV): 0.87 to 0.89 µM
anti-CMV activity (CMV): anti-CMV activity
EC50 (CMV; [6]): > 5 µM
EC50 (CMV; [7]): 16 µM

CNC(=O)C1NC(=O)C2NC(=O)C(NC(=O)C3NC(=O)C(CC(N)=O)NC(=O)C(NC(=O)C(CC(C)C)N(C)C(=O)OC(C)(C)C)C(O)c4ccc(c(Cl)c4)Oc4cc3cc(c4O)Oc3ccc(cc3)C2O)c2ccc(O)c(c2)-c2c1cc(O)c(CN1CCN(Cc3ccc(-c4ccccc4)cc3)CC1)c2O (stereo not shown) [Compound 7]
CC50 (HEL cells [1]; anti-VZV table): > 50 µM
MTC (HEL) (HEL cells [2]; anti-VZV table): ≧20 μM
activity against FCV (FCV): pronounced activity
EC50 (FCV): 3.6 µM
IC50 (human lymphocyte CEM): > 100 µM
EC50 (HIV-2(ROD)): 3.5 ± 0.7 µM
activity against VZV (VZV (wild-type strains)): pronounced activity
EC50 (VZV (wild-type strains); [4]): 1 µM
EC50 (VZV (wild-type strains); [5]): 0.87 µM
CC50 (FCK cells): > 50 µM
IC50 [3]: > 100 µM
IC50 (murine leukemia L1210): 84 ± 22 µM
EC50 (HIV-1 (IIIB)): 4 µM

CCCCc1ccc(CNC2C(Oc3c4cc5cc3Oc3ccc(cc3Cl)C(O)C3NC(=O)C(NC(=O)C5NC(=O)C5NC(=O)C(Cc6ccc(cc6)O4)NC(=O)C(NC)c4ccc(O)c(c4)Oc4cc(O)c(Cl)c5c4)c4ccc(O)c(c4)-c4c(cc(O)c(CN5CCN(Cc6ccc(-c7ccccc7)cc6)CC5)c4O)C(C(=O)NCCCN(C)C)NC3=O)OC(C(=O)NCCCN(C)C)C(O)C2O)cc1 (stereo not shown) [Compound 13]
activity against FCV (FCV): pronounced activity
EC50 (FCV): 5.9 µM
IC50 (human lymphocyte CEM): 212 ± 54 µM
EC50 (HIV-2(ROD)): 20 µM
CC50 (FCK cells): 30 µM
IC50 [3]: 35 ± 6.1 µM
IC50 (murine leukemia L1210): 25 ± 0.7 µM
EC50 (HIV-1 (IIIB)): 3.5 ± 2.1 µM

CCCCCCCCCC[N+](C)(C)CCCNC(=O)C1NC(=O)C2NC(=O)C(NC(=O)C3NC(=O)C4NC(=O)C(Cc5ccc(c(Cl)c5)Oc5cc3cc(c5O)Oc3ccc(cc3Cl)C2O)NC(=O)C(N)c2ccc(O)c(c2)Oc2cc(O)cc4c2)c2ccc(O)c(c2)-c2c1cc(O)c(CN1CC[N+](C)(CCCCCCCCCC)CC1)c2O (stereo not shown) [Compound 39]
CC50 (HEL cells [1]; anti-CMV table): 170 µM
CC50 (HEL cells [1]; anti-VZV table): 170 µM
MTC (HEL) (HEL cells [2]; anti-CMV table): ≧5 μM
MTC (HEL) (HEL cells [2]; anti-VZV table): ≧5 μM
IC50 (human lymphocyte CEM): 14 ± 2 µM
EC50 (HIV-2(ROD)): 1.3 ± 0.21 µM
EC50 (VZV (wild-type strains); [4]): 0.9 µM
EC50 (VZV (wild-type strains); [5]): 0.81 µM
IC50 [3]: 14 ± 3 µM
IC50 (murine leukemia L1210): 7.3 ± 0.3 µM
EC50 (CMV; [6]): > 2 µM
EC50 (CMV; [7]): 4 µM

CCCCCCCCCCNC1(C)CC(OC2C(Oc3c4cc5cc3Oc3ccc(cc3Cl)C(O)C(NC(=O)C(CC(C)C)NC)C(=O)NC(CC(N)=O)C(=O)NC5C(=O)NC3C(=O)NC(C(=O)NC(C(=O)O)c5cc(O)cc(O)c5-c5cc3ccc5O)C(OC3CC(C)(N)C(O)C(C)O3)c3ccc(cc3)O4)OC(CO)C(O)C2O)OC(C)C1O (stereo not shown) [Compound 68]
CC50 (HEL cells [1]; anti-CMV table): > 200 µM
CC50 (HEL cells [1]; anti-VZV table): > 200 µM
MTC (HEL) (HEL cells [2]; anti-CMV table): 5 to 50 µM
MTC (HEL) (HEL cells [2]; anti-VZV table): 5 to 50 µM
EC50 (VZV (wild-type strains); [4]): > 2 µM
EC50 (VZV (wild-type strains); [5]): 0.7 µM
EC50 (CMV; [6]): 20 µM
EC50 (CMV; [7]): > 20 µM

CCCCc1ccc(CNCc2c(O)cc3c(c2O)-c2cc(ccc2O)C2NC(=O)C4NC(=O)C5NC(=O)C(Cc6ccc(c(Cl)c6)Oc6cc4cc(c6O)Oc4ccc(cc4Cl)C(O)C(NC2=O)C(=O)NC3C(=O)NC)NC(=O)C(NC(=O)OC(C)(C)C)c2ccc(O)c(c2)Oc2cc(O)cc5c2)cc1 (stereo not shown) [Compound 47]
EC50 (FCV): 16 µM
IC50 (human lymphocyte CEM): > 100 µM
EC50 (HIV-2(ROD)): 12 ± 5.2 µM
CC50 (FCK cells): > 50 µM
IC50 [3]: > 100 µM
IC50 (murine leukemia L1210): 70 ± 23 µM
EC50 (HIV-1 (IIIB)): 6 ± 1 µM

NC1C(=O)NC2Cc3ccc(c(Cl)c3)Oc3cc4cc(c3O)Oc3ccc(cc3Cl)C(O)C3NC(=O)C(NC(=O)C4NC(=O)C(NC2=O)c2cc(O)cc(c2)Oc2cc1ccc2O)c1ccc(O)c(c1)-c1c(cc(O)c(CNC2C4CC5CC(C4)CC2C5)c1O)C(C(=O)NC1C2CC4CC(C2)CC1C4)NC3=O (stereo not shown) [Compound 52]
EC50 (FCV): 14 µM
IC50 (human lymphocyte CEM): > 250 µM
EC50 (HIV-2(ROD)): 3.5 ± 2.1 µM
CC50 (FCK cells): > 50 µM
IC50 [3]: > 250 µM
IC50 (murine leukemia L1210): 202 ± 68 µM
EC50 (HIV-1 (IIIB)): 2.5 ± 0.7 µM

CCCCCCCCCNCc1c(O)cc2c(c1O)-c1cc(ccc1O)C1NC(=O)C3NC(=O)C4NC(=O)C(Cc5ccc(c(Cl)c5)Oc5cc3cc(c5O)Oc3ccc(cc3Cl)C(O)C(NC1=O)C(=O)NC2C(=O)NCCCN(C)C)NC(=O)C(N)c1ccc(O)c(c1)Oc1cc(O)cc4c1 (stereo not shown) [Compound 21]
CC50 (HEL cells [1]; anti-CMV table): 107 µM
CC50 (HEL cells [1]; anti-VZV table): 107 µM
MTC (HEL) (HEL cells [2]; anti-CMV table): 5 to 50 µM
MTC (HEL) (HEL cells [2]; anti-VZV table): 5 to 50 µM
IC50 (human lymphocyte CEM): 179 ± 1 µM
EC50 (HIV-2(ROD)): 6.5 ± 0.7 µM
EC50 (VZV (wild-type strains); [4]): 1.3 µM
EC50 (VZV (wild-type strains); [5]): 2 µM
IC50 [3]: 136 ± 33 µM
IC50 (murine leukemia L1210): 43 ± 6 µM
EC50 (HIV-1 (IIIB)): 2.2 µM
anti-CMV activity (CMV): anti-CMV activity
EC50 (CMV; [6]): 8 µM

CNC(CC(C)C)C(=O)NC1C(=O)NC(CC(N)=O)C(=O)NC2C(=O)NC3C(=O)NC(C(=O)NC(C(=O)NCC45CC6CC(CC(C6)C4)C5)c4cc(O)cc(O)c4-c4cc3ccc4O)C(O)c3ccc(cc3)Oc3cc2cc(c3O)Oc2ccc(cc2Cl)C1O (stereo not shown) [Compound 99]
activity against FCV (FCV): pronounced activity
EC50 (FCV): 23 µM
IC50 (human lymphocyte CEM): 148 ± 3 µM
EC50 (HIV-2(ROD)): 7 µM
CC50 (FCK cells): ≥ 100 µM
IC50 [3]: 126 ± 11 µM
IC50 (murine leukemia L1210): 94 ± 15 µM
EC50 (HIV-1 (IIIB)): 1.6 ± 0.36 µM
